Starred links: 1 amine or outer side, 2 acyl side, 3 side chain; linkers in the order of their positions; H or OH if unused. Non-standard residues stand in square brackets, D forms with d. No end group written: not given here. *: point of attachment. Pyrrolidine(2S-CN) = N#C[C@@H]1CCCN1*; εLys = N[C@@H](CCCCN[*:1])C(=O)[*:2]; pGlu = O=C1CC[C@@H](C(=O)O)N1; AEEA = NCCOCCOCC(=O)O; βAla = NCCC(=O)O
Assays:
[1] = target: Recombinant DPP-IV (Homo sapiens, UniProt P27487); test: DPP-IV inhibition assay with chromogenic substrate; assay type: biochemical; set-up: purchased Chemicon International, Inc., Temecula, Calif; details: mean SEM of at least three determinations
Chain of Recombinant DPP-IV (P27487 whole entry, species assumed): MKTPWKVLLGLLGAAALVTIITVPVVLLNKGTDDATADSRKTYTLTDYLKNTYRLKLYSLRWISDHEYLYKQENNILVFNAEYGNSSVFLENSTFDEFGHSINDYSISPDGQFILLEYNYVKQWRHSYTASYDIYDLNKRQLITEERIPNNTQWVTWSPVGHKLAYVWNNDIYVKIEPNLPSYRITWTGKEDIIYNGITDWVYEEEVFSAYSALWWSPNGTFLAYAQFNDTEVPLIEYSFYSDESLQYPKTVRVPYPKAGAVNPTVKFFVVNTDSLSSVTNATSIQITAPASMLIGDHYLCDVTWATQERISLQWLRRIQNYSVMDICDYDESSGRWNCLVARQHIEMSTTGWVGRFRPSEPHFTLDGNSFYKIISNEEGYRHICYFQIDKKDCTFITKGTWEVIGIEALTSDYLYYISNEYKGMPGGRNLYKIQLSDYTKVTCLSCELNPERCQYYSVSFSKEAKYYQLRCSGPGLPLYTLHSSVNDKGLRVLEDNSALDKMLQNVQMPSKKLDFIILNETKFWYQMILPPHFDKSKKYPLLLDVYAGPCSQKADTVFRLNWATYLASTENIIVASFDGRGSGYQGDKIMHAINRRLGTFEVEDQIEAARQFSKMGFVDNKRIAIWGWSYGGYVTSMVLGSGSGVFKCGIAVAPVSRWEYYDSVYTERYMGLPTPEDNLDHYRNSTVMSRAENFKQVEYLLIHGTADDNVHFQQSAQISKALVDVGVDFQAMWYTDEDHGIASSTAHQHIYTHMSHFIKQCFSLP
Protocol: The reactions were initiated by adding 1 μl DPP-IV enzyme (0.05 mU) into each well and the absorbance at 410 nm was measured with 20-sec intervals over a 30-min period using a SpectraMax plate reader (Molecular Devices, Corp., Sunnyvale, Calif.). The velocities of each reaction at different inhibitor concentrations were calculated and the reciprocal velocities were plotted against inhibitor concentrations in Dixon graphs. The IC50 values of reaction velocities were calculated through fitting the plots with linear equation.
The IC50 (nM) values in Table 5 are expressed as the mean SEM of at least three independent determinations.

[2] = test system: NIH/Swiss mice; test: Oral glucose tolerance test (OGTT), glucose lowering; details: 30 nM/kg
[3] = target: T1, human GIP receptor (HEK-GIPR membranes) (Homo sapiens, UniProt P48546); test: GIP receptor binding displacement assay (RBA); details: 10 nM conjugate, 30 pM 125I-GIP; for inhibition at 0.01 µM: read-out: GIP RBA % inhibition at 10 nM
T1 construct: expressed in transfected cells
T1 sequence (P48546 22-466): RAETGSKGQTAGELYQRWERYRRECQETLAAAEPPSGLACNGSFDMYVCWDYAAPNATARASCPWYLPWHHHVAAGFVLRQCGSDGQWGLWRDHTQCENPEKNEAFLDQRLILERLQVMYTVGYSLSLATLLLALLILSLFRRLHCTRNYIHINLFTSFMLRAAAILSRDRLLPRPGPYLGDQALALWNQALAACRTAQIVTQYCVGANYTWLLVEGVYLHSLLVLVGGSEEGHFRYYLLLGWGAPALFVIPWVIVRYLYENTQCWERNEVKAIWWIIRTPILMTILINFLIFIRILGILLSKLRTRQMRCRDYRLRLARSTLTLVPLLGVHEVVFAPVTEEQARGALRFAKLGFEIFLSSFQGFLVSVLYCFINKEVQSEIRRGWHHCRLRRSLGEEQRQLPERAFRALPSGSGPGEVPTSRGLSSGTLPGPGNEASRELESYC
Protocol: Membrane fractions were prepared from confluent cell cultures of HEK-GIPR, snap frozen, and stored at −80° C. until use. […] Reactions were allowed to proceed to equilibrium for 90 minutes at room temperature with constant shaking. The reaction mixtures were then filtered through 96-well glass fiber filter plates separating bound and unbound fractions of radioligand.

| Molecule | IC50 [1] [nM] | OGTT % maximal decrease [2] | other results |
| --- | --- | --- | --- |
| H-YAEGTFISDYSIALDKIHQQDFVNWLLAQKPSSGAPPPS[AEEA][εLys]-{Pyrrolidine(2S-CN)} [[Leu^14]GIP(1-30)-exendin-4(31-39)-Ado-Lys-N-ε-(2-(S)-cyano pyrrolidyl)] | 82 ± 2 | – | – |
| [D-Ala^2, Leu^14]GIP-(1-30)-β-Ala-β-Ala-Lys(α-NH-Pyroglutamoyl)-Trp-Ala-Pro-COOH (peptide 1 Y[dA]EGTFISDYSIALDKIHQQDFVNWLLAQK[βAla][βAla]; peptide 2 [pGlu]KWAP-OH; not fully specified (some residues); printed as [D-Ala^2, Leu^14]GIP-(1-30)-β-Ala-β-Ala-Lys(α-NH-Pyroglutamoyl)-Trp-Ala-Pro-COOH; numbers in words are those of the source; also: linker at chain B 1 to a chain's C-terminus via βAla-βAla) | – | −12^ % | GIP RBA % inhibition at 10 nM [3]: 66% |
| CC[C@H](C)[C@H](NC(=O)[C@H](CO)NC(=O)[C@H](Cc1ccc(O)cc1)NC(=O)[C@H](CC(=O)O)NC(=O)[C@H](CO)NC(=O)[C@@H](NC(=O)[C@H](Cc1ccccc1)NC(=O)[C@@H](NC(=O)CNC(=O)[C@H](CCC(=O)O)NC(=O)[C@H](C)NC(=O)[C@@H](N)Cc1ccc(O)cc1)[C@@H](C)O)[C@@H](C)CC)C(=O)N[C@@H](C)C(=O)N[C@@H](CCSC)C(=O)N[C@@H](CC(=O)O)C(=O)N[C@@H](CCCCN)C(=O)N[C@H](C(=O)N[C@@H](Cc1c[nH]cn1)C(=O)N[C@@H](CCC(N)=O)C(=O)N[C@@H](CCC(N)=O)C(=O)N[C@@H](CC(=O)O)C(=O)N[C@@H](Cc1ccccc1)C(=O)N[C@H](C(=O)N[C@@H](CC(N)=O)C(=O)N[C@@H](Cc1c[nH]c2ccccc12)C(=O)N[C@@H](CC(C)C)C(=O)N[C@@H](CC(C)C)C(=O)N[C@@H](C)C(=O)N[C@@H](CCC(N)=O)C(=O)N[C@@H](CCCCN)C(=O)NCCOCCOCC(=O)NCCCC[C@H](N)C(=O)N1CCC[C@H]1C#N)C(C)C)[C@@H](C)CC [GIP(1-30)-Ado-Lys-N-ε-(2-(S)-cyano pyrrolidyl)] | 98 ± 5 | – | inhibition at 0.01 µM [3]: 99% |
| CC[C@H](C)[C@H](NC(=O)[C@H](CO)NC(=O)[C@H](Cc1ccc(O)cc1)NC(=O)[C@H](CC(=O)O)NC(=O)[C@H](CO)NC(=O)[C@@H](NC(=O)[C@H](Cc1ccccc1)NC(=O)[C@@H](NC(=O)CNC(=O)[C@H](CCC(=O)O)NC(=O)[C@H](C)NC(=O)[C@@H](N)Cc1ccc(O)cc1)[C@@H](C)O)[C@@H](C)CC)C(=O)N[C@@H](C)C(=O)N[C@@H](CCSC)C(=O)N[C@@H](CC(=O)O)C(=O)N[C@@H](CCCCN)C(=O)N[C@H](C(=O)N[C@@H](Cc1c[nH]cn1)C(=O)N[C@@H](CCC(N)=O)C(=O)N[C@@H](CCC(N)=O)C(=O)N[C@@H](CC(=O)O)C(=O)N[C@@H](Cc1ccccc1)C(=O)N[C@H](C(=O)N[C@@H](CC(N)=O)C(=O)N[C@@H](Cc1c[nH]c2ccccc12)C(=O)N[C@@H](CC(C)C)C(=O)N[C@@H](CC(C)C)C(=O)N[C@@H](C)C(=O)N[C@@H](CCC(N)=O)C(=O)N[C@@H](CCCCN)C(=O)NCCOCCOCC(=O)NCCOCCOCC(=O)NCCCC[C@H](N)C(=O)N1CCC[C@H]1C#N)C(C)C)[C@@H](C)CC [GIP(1-30)-Ado-Ado-Lys-N-ε-(2-(S)-cyano pyrrolidyl)] | – | −17% | inhibition at 0.01 µM [3]: 97% |
| CC[C@H](C)[C@H](NC(=O)[C@H](CO)NC(=O)[C@H](Cc1ccc(O)cc1)NC(=O)[C@H](CC(=O)O)NC(=O)[C@H](CO)NC(=O)[C@@H](NC(=O)[C@H](Cc1ccccc1)NC(=O)[C@@H](NC(=O)CNC(=O)[C@H](CCC(=O)O)NC(=O)[C@H](C)NC(=O)[C@@H](N)Cc1ccc(O)cc1)[C@@H](C)O)[C@@H](C)CC)C(=O)N[C@@H](C)C(=O)N[C@@H](CCSC)C(=O)N[C@@H](CC(=O)O)C(=O)N[C@@H](CCCCN)C(=O)N[C@H](C(=O)N[C@@H](Cc1c[nH]cn1)C(=O)N[C@@H](CCC(N)=O)C(=O)N[C@@H](CCC(N)=O)C(=O)N[C@@H](CC(=O)O)C(=O)N[C@@H](Cc1ccccc1)C(=O)N[C@H](C(=O)N[C@@H](CC(N)=O)C(=O)N[C@@H](Cc1c[nH]c2ccccc12)C(=O)N[C@@H](CC(C)C)C(=O)N[C@@H](CC(C)C)C(=O)N[C@@H](C)C(=O)N[C@@H](CCC(N)=O)C(=O)N[C@@H](CCCCN)C(=O)N1CCC[C@H]1C(=O)N[C@@H](CO)C(=O)N[C@@H](CO)C(=O)NCC(=O)N[C@@H](C)C(=O)N1CCC[C@H]1C(=O)N1CCC[C@H]1C(=O)N1CCC[C@H]1C(=O)N[C@@H](CO)C(=O)NCCOCCOCC(=O)NCCOCCOCC(=O)NCCCC[C@H](N)C(=O)N1CCC[C@H]1C#N)C(C)C)[C@@H](C)CC [GIP(1-30)-exendin-4(31-39)-Ado-Ado-Lys-N-ε-(2-(S)-cyano pyrrolidyl)] | – | −22% | – |
| Lys^16 (N-ε-(Aun-Aun-(γ-L-Glu-2-(S)-cyano pyrrolidyl))) GIP(1-30)-exendin(31-39) | – | −3% | – |
| CC[C@H](C)[C@H](NC(=O)[C@H](CO)NC(=O)[C@H](Cc1ccc(O)cc1)NC(=O)[C@H](CC(=O)O)NC(=O)[C@H](CO)NC(=O)[C@@H](NC(=O)[C@H](Cc1ccccc1)NC(=O)[C@@H](NC(=O)CNC(=O)[C@H](CCC(=O)O)NC(=O)[C@@H](C)NC(=O)[C@@H](N)Cc1ccc(O)cc1)[C@@H](C)O)[C@@H](C)CC)C(=O)N[C@@H](C)C(=O)N[C@@H](CCSC)C(=O)N[C@@H](CC(=O)O)C(=O)N[C@@H](CCCCN)C(=O)N[C@H](C(=O)N[C@@H](Cc1c[nH]cn1)C(=O)N[C@@H](CCC(N)=O)C(=O)N[C@@H](CCC(N)=O)C(=O)N[C@@H](CC(=O)O)C(=O)N[C@@H](Cc1ccccc1)C(=O)N[C@H](C(=O)N[C@@H](CC(N)=O)C(=O)N[C@@H](Cc1c[nH]c2ccccc12)C(=O)N[C@@H](CC(C)C)C(=O)N[C@@H](CC(C)C)C(=O)N[C@@H](C)C(=O)N[C@@H](CCC(N)=O)C(=O)N[C@@H](CCCCN)C(=O)N1CCC[C@H]1C(=O)N[C@@H](CO)C(=O)N[C@@H](CO)C(=O)NCC(=O)N[C@@H](C)C(=O)N1CCC[C@H]1C(=O)N1CCC[C@H]1C(=O)N1CCC[C@H]1C(=O)N[C@@H](CO)C(=O)NCCOCCOCC(=O)NCCCC[C@H](N)C(=O)N1CCC[C@H]1C#N)C(C)C)[C@@H](C)CC [[D-Ala]GIP(1-30)-exendin-4(31-39)-Ado-Lys-N-ε-(2-(S)-cyano pyrrolidyl)] | – | −20% | – |
| CC[C@H](C)[C@H](NC(=O)[C@H](CO)NC(=O)[C@H](Cc1ccc(O)cc1)NC(=O)[C@H](CC(=O)O)NC(=O)[C@H](CO)NC(=O)[C@@H](NC(=O)[C@H](Cc1ccccc1)NC(=O)[C@@H](NC(=O)CNC(=O)[C@H](CCC(=O)O)NC(=O)[C@H](C)NC(=O)[C@H](Cc1ccc(O)cc1)NC(=O)COCCOCCNC(=O)COCCOCCNC(=O)CC[C@H](N)C(=O)N1CCC[C@H]1C#N)[C@@H](C)O)[C@@H](C)CC)C(=O)N[C@@H](C)C(=O)N[C@@H](CCSC)C(=O)N[C@@H](CC(=O)O)C(=O)N[C@@H](CCCCN)C(=O)N[C@H](C(=O)N[C@@H](Cc1c[nH]cn1)C(=O)N[C@@H](CCC(N)=O)C(=O)N[C@@H](CCC(N)=O)C(=O)N[C@@H](CC(=O)O)C(=O)N[C@@H](Cc1ccccc1)C(=O)N[C@H](C(=O)N[C@@H](CC(N)=O)C(=O)N[C@@H](Cc1c[nH]c2ccccc12)C(=O)N[C@@H](CC(C)C)C(=O)N[C@@H](CC(C)C)C(=O)N[C@@H](C)C(=O)N[C@@H](CCC(N)=O)C(=O)N[C@@H](CCCCN)C(=O)N1CCC[C@H]1C(=O)N[C@@H](CO)C(=O)N[C@@H](CO)C(=O)NCC(=O)N[C@@H](C)C(=O)N1CCC[C@H]1C(=O)N1CCC[C@H]1C(=O)N1CCC[C@H]1C(=O)N[C@@H](CO)C(=O)O)C(C)C)[C@@H](C)CC [N-(γ-L-Glu-2-(S)-cyanopyrrolidyl)-Ado-Ado) GIP(1-30)-exendin-4(31-39)] | 110 ± 2 | – | – |
